{"source": "patent US20060148895A1", "about": "“New composition use and method” (priority 2002, published 2006)", "key": {"[1]": {"assay": "Washing-out properties: residuals of Pres. (18) components after rinsing the housing", "conditions": "to a 50 kg person", "procedure": "In a safety evaluation it assumed that the entire volume of a housing is filled with the aqueous antimicrobial preservation composition as the worst case. […] (18). The housing was inserted in its device for extra-corporeal circulation treatment and rinsed with 900 ml of a Ringer-Acetate solution (Pharmacia, Inc) before clinical use. The residual concentration of the components of Pres. (18) after the rinsing procedure was then analyzed. The maximum concentrations found were below the detection limit: […]"}, "[2]": {"conditions": "5 day covered contact in 50 human volunteers, cited from earlier work"}, "[3]": {"conditions": "neat ethyl paraben; cited from earlier work"}, "[4]": {"conditions": "healthy subjects; cited from earlier work"}, "[5]": {"conditions": "cited from earlier work"}, "[6]": {"conditions": "cited from earlier work", "remark": "listed apart in the source"}, "[7]": {"conditions": "after ingesting 2000 mg/day for 30 days; cited from earlier work"}, "[8]": {"conditions": "cited from earlier work", "remark": "listed apart in the source"}, "[9]": {"conditions": "cited from earlier work", "remark": "listed apart in the source"}, "[10]": {"conditions": "cited from earlier work", "remark": "listed apart in the source"}}, "note": "Read-outs that look alike come from different tables or passages of the source."}
{"smiles": "CCOC(=O)c1ccc(O)cc1", "note": "[Ethyl paraben]", "values": [{"measurement": "Maximal intravenous dose from residuals", "setting": "[1]", "value": "<0.042", "unit": "mg/kg"}, {"measurement": "Skin irritation (human)", "setting": "[2]; 7% solution in propylene glycol", "value": "glycol was non-irritant. (5"}, {"measurement": "Eye irritation (rabbit)", "setting": "[3]", "value": "slight irritation"}, {"measurement": "Skin sensitisation (human)", "setting": "[4]", "value": "No evidence of skin"}, {"measurement": "Acute oral LD50 (Rat)", "setting": "[5]", "value": ">4300", "unit": "mg/kg"}, {"measurement": "Repeated oral dose (Rat) - 25 weeks: signs of toxicity", "setting": "[6]; diet containing 2% ethyl paraben, 25 weeks", "value": "paraben gave no visible signs"}]}
{"smiles": "COC(=O)c1ccc(O)cc1", "note": "[Methyl paraben]", "values": [{"measurement": "Maximal intravenous dose from residuals", "setting": "[1]", "value": 0.042, "unit": "mg/kg"}, {"measurement": "Repeated oral dose (human)", "setting": "[7]", "value": "No obvious toxic effects"}, {"measurement": "Skin irritation (human)", "setting": "[2]; 5% solution in Propylene glycol", "value": "glycol was non-irritant. (5"}, {"measurement": "Eye irritation (human): time within which irritation and burning sensation disappeared", "setting": "[8]; solutions containing 0.1-0.3% methyl paraben", "value": "disappeared within 1 minute"}, {"measurement": "Skin sensitisation (human)", "setting": "[4]", "value": "No evidence of skin"}, {"measurement": "Acute oral LD50 (Mouse)", "setting": "[9]", "value": ">8000", "unit": "mg/kg"}, {"measurement": "Intraperitoneal LD50 (Mouse)", "setting": "[10]", "value": 960, "unit": "mg/kg"}, {"measurement": "Repeated oral dose (Rat) - 96 weeks: dose that gave no visible signs of toxicity or tissue changes in the major organs", "setting": "[6]", "value": "900-1200 mg/kg/day gave no"}]}
{"smiles": "CCCOC(=O)c1ccc(O)cc1", "note": "[Propyl paraben]", "values": [{"measurement": "Maximal intravenous dose from residuals", "setting": "[1]", "value": "<0.042", "unit": "mg/kg"}, {"measurement": "Skin irritation (human)", "setting": "[2]; 12% solution in Propylene glycol", "value": "glycol was non-irritant. (5"}, {"measurement": "Eye irritation (human)", "setting": "[8]; solution containing 0.01% propyl paraben, contact time of 15 minutes in 60 patients", "value": "propyl paraben produced no"}, {"measurement": "Acute oral LD50 (Mouse)", "setting": "[9]", "value": ">8000", "unit": "mg/kg"}, {"measurement": "Intraperitoneal LD50 (Mouse)", "setting": "[10]", "value": 640, "unit": "mg/kg"}, {"measurement": "Repeated oral dose (Rat) - 96 weeks: dose that gave no visible signs of toxicity or tissue changes in the major organs", "setting": "[6]", "value": "900-1200 mg/kg/day gave no"}]}
{"smiles": "CC(O)CO", "note": "(stereo not drawn) [Propylene glycol]", "values": [{"measurement": "Maximal intravenous dose from residuals", "setting": "[1]", "value": "<0.022", "unit": "mg/kg"}]}
